Assay results reported in US7321074B1, “Melanocortin-3 receptor deficient cells, non-human transgenic animals and methods of selecting compounds which regulate body weight” (Merck & Co., Inc., priority 1999, dated 2008).

Assay: Peripheral MTII administration: food consumption in MC-3R−/− and WT mice
Conditions: single intraperitoneal injection, 10 mg/kg, n=9
Description: Food intake measurements—MC-3R^−/−, MC-3R^+/−, and WT mice were separated into individual microisolator cages at approximately one month of age. For studies involving regular mouse chow (Teklad 7012; 5% fat, 19% protein, and 5% of fiber; 3.75 grams/Kcal and 14.8% Kcal. from fat), pellet food was provided in wire cage tops containing food hoppers and food was weighed weekly. For studies involving a high fat diet (Teklad 97070; 33.5% fat, 27.4% protein, and 26.5% carbohydrates; 60% calories from fat), ground food was provided in a glass jar located in the cage and the jar containing the food was weighed either daily or weekly.
Peripheral MTII administration—For seven consecutive days, individually-housed 23-25-week-old male MC-3R^−/− (n=9) and WT (n=9) mice received an intraperitoneal (ip) injection of a sterile 0.9% NaCl vehicle solution approximately 30 min before the onset of the dark phase of the light cycle. At the same time on the eighth consecutive day of the study, mice received an ip injection of MTII at a dose of 10 mg/kg delivered in vehicle. Body and food (Teklad 7012) weights were measured and recorded daily approximately 15 min prior to injection.

MTII
reduction of food consumption over a 24-h period relative to a 2-day vehicle treatment baseline (male MC-3R−/− mice): 16.9±7.0 % reduction | reduction of food consumption over a 24-h period relative to a 2-day vehicle treatment baseline (male WT mice): 11.1±4.3 % reduction
